According to US11999727B2 (Tango Therapeutics, Inc., priority 2020, dated 2024):
Read-outs that look alike come from different tables or passages of the source.

Key:
PRMT5 [1] = biological target: T1, PRMT5 (Homo sapiens, UniProt O14744); assay: PRMT5 biochemical IC50 assay with SAM as cofactor; settings: PRMT5, SAM as cofactor; read-out: SAM IC50
T1 construct: purchased Viva (custom protein)

PRMT5 [2] = biological target: T1, PRMT5; assay: PRMT5 biochemical IC50 assay with no cofactor; settings: PRMT5, no cofactor
Text: Table 1 indicates IC50 values (μM) against PRMT5 for exemplary compounds in the presence of SAM as cofactor, with no cofactor, and with MTA as cofactor, respectively (columns 4-6). […] Ki values can be calculated from the IC50 values as described in the Examples section. As detailed in the Examples section, for the assay performed in the presence of SAM, IC50=Ki×1.5 (Ki=IC50/1.5).

PRMT5 [3] = biological target: T1, PRMT5; assay: PRMT5 biochemical IC50 assay with MTA as cofactor; settings: PRMT5, MTA as cofactor; read-out: MTA IC50
[4] = test system: HAP1 MTAP-intact cell line; assay: SDMA in-cell western assay, HAP1 MTAP-intact; assay type: cell-based; settings: Homo sapiens
Summary of the method: (§1)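 MTAP-null vs endogenous-MTAP HAP1 isogenic cells; in-cell western SDMA readout; IC50 per line.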

[5] = test system: HAP1 MTAP-deleted cell line; assay: SDMA in-cell western assay, HAP1 MTAP-deleted; assay type: cell-based; settings: for IC50: Homo sapiens; for MTAP intact/deleted ratio: SDMA in-cell western
Summary of the method: as §1

[6] = test system: HAP1 MTAP-deleted cell line; assay: Viability assay, MTAP-deleted cell line; assay type: cell-based; settings: Homo sapiens
Text: Table 1 additionally indicates IC50 values in a viability assay for the MTAP-deleted cell line (column 10), indicating the effect of treatment with compound on cell survival.

[7] = read-out: No Cofactor/ rel IC50
[8] = HAP1, SDMA in-cell western, HAP1 MTAP-intact, read-out: MTAP HAP1 intact IC50
[9] = HAP1, SDMA in-cell western, HAP1 MTAP-deleted, read-out: HAP 1 MTAP deleted IC50
[10] = HAP1, viability, HAP1 MTAP-deleted cell line, read-out: HAP1 MTAP deleted viability
[11] = IC50 ratio HAP1 MTAP-intact / HAP1 MTAP-deleted
[12] = HAP1, viability IC50, MTAP-deleted cell line, read-out: HAP1 MTAP deleted viability
[13] = HAP1, SDMA in-cell western, HAP1 MTAP-deleted, read-out: HAP1 MTAP deleted IC50
[14] = IC50 ratio HAP1 MTAP-intact vs HAP1 MTAP-deleted
[15] = HAP1, viability assay, MTAP-deleted cell line, read-out: HAP1 MTAP deleted viability

T1 sequence (O14744 whole entry): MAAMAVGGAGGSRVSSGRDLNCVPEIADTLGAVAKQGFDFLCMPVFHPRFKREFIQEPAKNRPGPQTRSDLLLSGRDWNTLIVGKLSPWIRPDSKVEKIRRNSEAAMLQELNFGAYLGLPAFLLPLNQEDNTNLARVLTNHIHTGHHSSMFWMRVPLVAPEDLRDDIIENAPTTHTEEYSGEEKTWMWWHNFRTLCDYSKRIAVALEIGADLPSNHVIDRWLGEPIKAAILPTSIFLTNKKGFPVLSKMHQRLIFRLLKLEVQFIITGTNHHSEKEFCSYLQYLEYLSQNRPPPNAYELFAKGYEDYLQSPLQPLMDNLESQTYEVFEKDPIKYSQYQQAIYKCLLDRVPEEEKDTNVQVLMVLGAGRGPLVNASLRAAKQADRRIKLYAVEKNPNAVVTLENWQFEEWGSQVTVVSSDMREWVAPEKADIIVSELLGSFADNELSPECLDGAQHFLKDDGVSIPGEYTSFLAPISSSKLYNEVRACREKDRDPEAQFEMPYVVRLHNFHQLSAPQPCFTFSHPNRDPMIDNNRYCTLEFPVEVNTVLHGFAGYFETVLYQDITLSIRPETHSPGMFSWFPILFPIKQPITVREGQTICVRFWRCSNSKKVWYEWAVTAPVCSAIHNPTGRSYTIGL
T1 sequence (Q9BQA1 whole entry partner): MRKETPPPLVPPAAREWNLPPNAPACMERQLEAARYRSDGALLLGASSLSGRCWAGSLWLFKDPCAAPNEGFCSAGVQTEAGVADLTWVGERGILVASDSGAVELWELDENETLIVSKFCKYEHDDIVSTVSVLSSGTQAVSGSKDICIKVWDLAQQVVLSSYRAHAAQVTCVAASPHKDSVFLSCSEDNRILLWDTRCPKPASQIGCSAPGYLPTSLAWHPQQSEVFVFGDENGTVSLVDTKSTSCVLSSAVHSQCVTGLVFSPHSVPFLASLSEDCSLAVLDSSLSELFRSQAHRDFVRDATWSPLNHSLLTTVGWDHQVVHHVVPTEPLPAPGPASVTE

| IC50 (PRMT5 [1]) | IC50 (PRMT5 [2]; [7]) | IC50 (PRMT5 [3]) | IC50 [4, 8] | IC50 [5, 9] | IC50 (PRMT5 [2]; read-out: No Cofactor/rel IC50) | IC50 [5, 13] | Compound | IC50 [6, 10] | MTAP intact/deleted ratio [5, 11] | IC50 [6, 12] | MTAP intact/deleted ratio [5, 14] | IC50 [6, 15] | IC50 ([6]; HAP1, viability assay, HAP1 MTAP-deleted, read-out: HAP1 MTAP deleted viability) | IC50 ([4]; HAP1, read-out: MTAP HAP1 intact IC50) | IC50 ([5]; HAP1, read-out: HAP1 MTAP deleted IC50) | IC50 ([6]; HAP1, read-out: HAP1 MTAP deleted viability) |
| --- | --- | --- | --- | --- | --- | --- | --- | --- | --- | --- | --- | --- | --- | --- | --- | --- |
| > 500 nM | > 500 nM | > 500 nM | > 1000 nM | 100 to 1000 nM | – | – | C[C@@H]1CC[C@@H](c2ccc3cncn3c2)N(C(=O)C(=O)Nc2cnc(N)c(C3CC3)c2)C1 (single isomer, unassigned) [Compound 1336, N-(6-amino-5-cyclopropylpyridin-3-yl)-2-(2-(imidazo[1,5-a]pyridin-6-yl)-5-methylpiperidin-1-yl)-2-oxoacetamide] | 1000 to 10000 nM | – | – | – | – | – | – | – | – |
| 50 to 500 nM | < 50 nM | < 50 nM | < 100 nM | < 100 nM | – | – | CCc1cc(NC(=O)C(=O)N2C[C@@H](C)CC[C@@H]2c2ccc3sc(CC(C)N(C)C)nc3c2)cnc1N (mixture of isomers) [Compound 1345, N-(6-amino-5-ethylpyridin-3-yl)-2-((2R,5S)-2-(2-(2-(dimethylamino)propyl)benzo[d]thiazol-5-yl)-5-methylpiperidin-1-yl)-2-oxoacetamide] | < 1000 nM | A (an IC50 ratio greater than or equal to 10 fold) | – | – | – | – | – | – | – |
| > 500 nM | – | > 500 nM | > 1000 nM | > 1000 nM | > 500 nM | – | Cc1nc2cc([C@H]3CC[C@H](C)CN3C(=O)C(=O)Nc3cncc(C(N)=O)c3)ccc2s1 (single isomer, unassigned) [Compound 702] | – | B (an IC50 ratio greater than or equal to 3 fold but lower than 10 fold) | > 10000 nM | – | – | – | – | – | – |
| < 50 nM | – | < 50 nM | < 100 nM | – | < 50 nM | < 100 nM | CCc1cc(NC(=O)C(=O)N2CC(C)CCC2c2ccc3sc(C4CCN(C)CC4C)nc3c2)cnc1N (racemic) [Compound 1227, N-(6-amino-5-ethyl-3-pyridyl)-2-oxo-2-[rac-(2R,5S)-5-methyl-2-[2-[rac-(3S,4R)-1,3-dimethyl-4-piperidyl]-1,3-benzothiazol-5-yl]-1-piperidyl]acetamide] | – | – | – | A (an IC50 ratio greater than or equal to 10 fold) | < 1000 nM | – | – | – | – |
| 50 to 500 nM | 50 to 500 nM | < 50 nM | > 1000 nM | < 100 nM | – | – | Cc1cc([C@@H]2CC[C@@H](C)CN2C(=O)C(=O)Nc2cncc(C(N)=O)c2)ccc1OC1CCOC1 (mixture of isomers) [Compound 171, rac-5-{2-[(2R,5S)-5-Methyl-2-[3-methyl-4-(oxolan-3-yloxy)phenyl]piperidin-1-yl]-2-oxoacetamido}pyridine-3-carboxamide] | – | A (an IC50 ratio greater than or equal to 10 fold) | – | – | 1000 to 10000 nM | – | – | – | – |
| 50 to 500 nM | – | 50 to 500 nM | < 100 nM | – | 50 to 500 nM | < 100 nM | CCc1cc(NC(=O)C(=O)N2C[C@@H](C)[C@@H](OC)C[C@@H]2c2cccc(OCCN(C)C)c2)cnc1N (racemic) [Compound 1139, N-(6-amino-5-ethyl-3-pyridyl)-2-oxo-2-[rac-(2R,4S,5R)-2-[3-[2-(dimethylamino)ethoxy]phenyl]-4-methoxy-5-methyl-1-piperidyl]acetamide] | – | – | – | B (an IC50 ratio greater than or equal to 3 fold but lower than 10 fold) | < 1000 nM | – | – | – | – |
| > 500 nM | – | > 500 nM | > 1000 nM | – | > 500 nM | > 1000 nM | COc1ncc(NC(=O)C(=O)N2C[C@H](C)CC[C@H]2c2ccc(N)nc2)cc1C(N)=O (single isomer, unassigned) [Compound 471] | – | C (an IC50 ratio of less than 3 fold) | – | – | > 10000 nM | – | – | – | – |
| > 500 nM | – | > 500 nM | > 1000 nM | – | > 500 nM | 100 to 1000 nM | COc1ncc(NC(=O)C(=O)N2C[C@@H](C)CC[C@@H]2c2ccc3[nH]cnc3c2)cc1C(N)=O (single isomer, unassigned) [Compound 805] | – | A (an IC50 ratio greater than or equal to 10 fold) | – | – | – | > 10000 nM | – | – | – |
| 50 to 500 nM | < 50 nM | < 50 nM | < 100 nM | < 100 nM | – | – | CCc1cc(NC(=O)C(=O)N2C[C@@H](C)CC[C@@H]2c2ccc3sc(C4(CN(C)C)CC4)nc3c2)cnc1N [Compound 1347, N-(6-amino-5-ethylpyridin-3-yl)-2-((2R,5S)-2-(2-(1-((dimethylamino)methyl)cyclopropyl)benzo[d]thiazol-5-yl)-5-methylpiperidin-1-yl)-2-oxoacetamide] | < 1000 nM | A (an IC50 ratio greater than or equal to 10 fold) | – | – | – | – | – | – | – |
| 50 to 500 nM | 50 to 500 nM | 50 to 500 nM | > 1000 nM | 100 to 1000 nM | – | – | Cc1cc(NC(=O)C(=O)N2C[C@H](C)CC[C@H]2C2CCCC(C)(C)C2)cnc1N (mixture of isomers) [Compound 150, N-(6-amino-5-methyl-3-pyridyl)-2-[(2S,5R)-2-(3,3-dimethylcyclohexyl)-5-methyl-1-piperidyl]-2-oxo-acetamide] | – | C (an IC50 ratio of less than 3 fold) | – | – | 1000 to 10000 nM | – | – | – | – |
| > 500 nM | – | > 500 nM | > 1000 nM | – | > 500 nM | > 1000 nM | CCc1cc(NC(=O)C(=O)N2C[C@H](C)CC[C@H]2c2ccc(N3CCN(C(C)C)CC3)cc2)cnc1N (single isomer, unassigned) [Compound 1234] | – | – | – | – | 1000 to 10000 nM | – | – | – | – |
| 50 to 500 nM | – | 50 to 500 nM | > 1000 nM | 100 to 1000 nM | 50 to 500 nM | – | Cc1cc(NC(=O)C(=O)N2C[C@H](C)CC[C@H]2c2ccc3c(c2)CCC(=O)N3)cnc1C(F)F (racemic) [Compound 641, N-[6-(Difluoromethyl)-5-methyl-3-pyridyl]-2-[(2S,5R)-5-methyl-2-(2-oxo-3,4-dihydro-1H-quinolin-6-yl)-1-piperidyl]-2-oxo-acetamide] | – | – | 1000 to 10000 nM | – | – | – | – | – | – |
| 50 to 500 nM | < 50 nM | < 50 nM | 100 to 1000 nM | < 100 nM | – | – | C[C@H]1CC[C@H](c2ccc3c(c2)CCN(C)C3)N(C(=O)C(=O)Nc2cnc(N)c(C3CC3)c2)C1 [Compound 1264, N-(6-Amino-5-cyclopropyl-3-pyridyl)-2-[(2R,5S)-5-methyl-2-(2-methyl-3,4-dihydro-1H-isoquinolin-6-yl)-1-piperidyl]-2-oxo-acetamide] | < 1000 nM | A (an IC50 ratio greater than or equal to 10 fold) | – | – | – | – | – | – | – |
| < 50 nM | – | < 50 nM | < 100 nM | – | < 50 nM | < 100 nM | CCc1cc(NC(=O)C(=O)N2C[C@@H](C)CC[C@@H]2c2ccc3sc(CCN(C)C)nc3c2)cnc1N (single isomer, unassigned) [Compound 1196] | – | – | – | A (an IC50 ratio greater than or equal to 10 fold) | < 1000 nM | – | – | – | – |

| Compound | IC50 (PRMT5 [1]) | IC50 (PRMT5 [2]; [7]) | IC50 (PRMT5 [3]) | IC50 [4, 8] | IC50 [5, 9] | IC50 (PRMT5 [2]; read-out: No Cofactor/rel IC50) | IC50 [5, 13] | IC50 [6, 10] | MTAP intact/deleted ratio [5, 11] | IC50 [6, 12] | MTAP intact/deleted ratio [5, 14] | IC50 [6, 15] | IC50 ([6]; HAP1, viability assay, HAP1 MTAP-deleted, read-out: HAP1 MTAP deleted viability) | IC50 ([4]; HAP1, read-out: MTAP HAP1 intact IC50) | IC50 ([5]; HAP1, read-out: HAP1 MTAP deleted IC50) | IC50 ([6]; HAP1, read-out: HAP1 MTAP deleted viability) |
| --- | --- | --- | --- | --- | --- | --- | --- | --- | --- | --- | --- | --- | --- | --- | --- | --- |
| COc1ncc(NC(=O)C(=O)N2C[C@@H](C)CC[C@@H]2c2ccc(O)cc2)cc1C(N)=O (single isomer, unassigned) [Compound 288] | 50 to 500 nM | – | < 50 nM | – | – | < 50 nM | – | – | A (an IC50 ratio greater than or equal to 10 fold) | – | – | – | – | 100 to 1000 nM | < 100 nM | < 1000 nM |
